The source of these data is ChEMBL document CHEMBL1201862, “PubChem BioAssay data set” (2004).

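Values below derive from 48-hour exposures of cells grown in 96-well plates, with endpoints linearly interpolated between the two concentrations bracketing the appropriate inhibition level. The concentration for 50% growth inhibition is given as GI50.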 Activity calls are given as the source filed them. Cut-off read from the data, not from the text of the source: active = GI50 up to about 1.1 µM and inactive = higher. Where only a bound is given, the exact number is not on record here.

Test systems include NCI-H460; MOLT-4; U-251; SNB-19; A549; HCC 2998; CAKI-1; SK-OV-3; COLO 205; UACC-62; NCI-H522; HCT-15; HOP-62; KM12; HOP-92; RPMI-8226; SK-MEL-5; SR.
Experiment in all cases: inhibition of tumour cell growth, NCI panel, 48 h

Regarding `CN1c2ccccc2N(C(=O)c2ccccc2)C(CC(=O)O)c2cccn21` (centres undefined), the GI50 in the assay on NCI-H460, in the assay on MOLT-4, with U-251, in the assay on SNB-19, in the assay with A549 and in the assay with HCC 2998 was > 100 µM (inactive) in each case. The GI50 in the assay on CAKI-1 is > 100 µM (inactive); in the assay on SK-OV-3 it was > 100 µM (inactive); in the assay on COLO 205, > 100 µM (inactive); with UACC-62, 55.3 µM (inactive); in the assay with NCI-H522 it was > 100 µM (inactive); with HCT-15, greater than 100 µM. Also, the GI50 with HOP-62 was > 100 µM (inactive); in the assay on KM12, > 100 µM (inactive); in the assay with HOP-92 it was 19.4 µM (inactive); with RPMI-8226, > 100 µM (inactive); with SK-MEL-5, > 100 µM (inactive).

For the compound `CCCCCCCCOCC(CO)OCCCCCCCC` (centres undefined), the GI50 in the assay with SR is > 10 µM (inactive); in the assay on NCI-H460, 15.8 µM (inactive); in the assay on MOLT-4 it was 19.2 µM (inactive); in the assay on U-251 it was 17.3 µM (inactive); in the assay on SNB-19, 23.7 µM (inactive); in the assay with A549, 18.9 µM (inactive). The GI50 in the assay on HCC 2998 is 18.9 µM (inactive); in the assay on CAKI-1, 30.5 µM (inactive); in the assay on SK-OV-3, > 100 µM (inactive); in the assay with COLO 205, 20.6 µM (inactive); with UACC-62, 20.1 µM (inactive); in the assay with HCT-15 it was 15.9 µM. The GI50 with HOP-62 is 21.6 µM (inactive); in the assay with HOP-92, 21.8 µM (inactive); in the assay on RPMI-8226 it was 21.7 µM (inactive); with SK-MEL-5 it was 17.9 µM (inactive).

Regarding `Cn1cc(NC(=O)c2cc(NC(=O)Nc3cc(C(=O)Nc4cc(C(=O)NCCC(=N)N)n(C)c4)n(C)c3)cn2C)cc1C(=O)NCCC(=N)N`, the GI50 was 44.2 µM (inactive) in the assay on SR; 17.3 µM (inactive) with NCI-H460; > 100 µM (inactive) with MOLT-4; 26.6 µM (inactive) in the assay on U-251; > 100 µM (inactive) in the assay with SNB-19; 29.4 µM (inactive) in the assay on A549. The GI50 was 48.1 µM (inactive) in the assay on HCC 2998; 30.5 µM (inactive) in the assay with CAKI-1; > 100 µM (inactive) with SK-OV-3; 33 µM (inactive) with COLO 205; 16.9 µM (inactive) in the assay on UACC-62; greater than 100 µM in the assay with HCT-15. The GI50 in the assay with HOP-62 is 39.8 µM (inactive); in the assay with KM12, 17 µM (inactive); in the assay on HOP-92 it was 42.2 µM (inactive); in the assay on SK-MEL-5 it was 17.4 µM (inactive).

`CCOC(=O)C(=O)CC1=Nc2ccccc2SC(c2cccc(C)c2)C1` (centres undefined): the GI50 in the assay on SR is 22.2 µM (inactive); in the assay on NCI-H460, 19.5 µM (inactive); in the assay on MOLT-4, 17.3 µM (inactive); in the assay with U-251, 17.1 µM (inactive); with SNB-19, 18.3 µM (inactive); in the assay on A549 it was 21.2 µM (inactive). Also, the GI50 with HCC 2998 was 16.3 µM (inactive); in the assay with CAKI-1, 21.9 µM (inactive); in the assay on SK-OV-3, > 10 µM (inactive); in the assay with COLO 205, > 10 µM (inactive); in the assay on UACC-62, 16.9 µM (inactive); with NCI-H522, 17.3 µM (inactive). Besides, the GI50 in the assay with HCT-15 is 18.2 µM; in the assay with HOP-62, 23.9 µM (inactive); with KM12, 16.2 µM (inactive); in the assay with HOP-92, 16 µM (inactive); with RPMI-8226, 23.7 µM (inactive); in the assay on SK-MEL-5 it was 18.2 µM (inactive).

As to `CCc1cccc(C(C)C)c1NC(=O)C(=O)C1C(=O)NC(=O)NC1=O`, the GI50 with SR, with NCI-H460, in the assay with U-251, with SNB-19, in the assay on A549 and in the assay on HCC 2998 was > 100 µM (inactive) throughout. Besides, the GI50 in the assay with CAKI-1 is > 100 µM (inactive); in the assay with SK-OV-3, > 100 µM (inactive); with COLO 205 it was > 100 µM (inactive); in the assay with UACC-62 it was > 100 µM (inactive); in the assay with NCI-H522, > 100 µM (inactive); in the assay on HCT-15 it was greater than 100 µM. The GI50 in the assay on HOP-62, in the assay on KM12, with HOP-92, in the assay on RPMI-8226 and with SK-MEL-5 was > 100 µM (inactive) each time.

For `CC1CC(=O)C(C(O)CC2CC(=O)N(c3ccccc3)C(=O)C2)C(C)C1` (centres undefined), the GI50 in the assay with SR, in the assay on NCI-H460, in the assay with MOLT-4, in the assay with U-251, in the assay with SNB-19 and with A549 was > 100 µM (inactive) in each case. The GI50 in the assay on HCC 2998, in the assay on CAKI-1, in the assay with SK-OV-3, in the assay with COLO 205, in the assay with UACC-62 and in the assay on NCI-H522 was > 100 µM (inactive) each time. Besides, the GI50 with HOP-62, with KM12, with HOP-92 and with RPMI-8226 was > 100 µM (inactive) each time.

With `CC(C)(C)C[P+](C)(C)c1ccccc1`, the GI50 with SR is > 100 µM (inactive); in the assay on NCI-H460 it was > 100 µM (inactive); in the assay on MOLT-4 it was > 100 µM (inactive); with U-251, > 100 µM (inactive); with SNB-19, > 100 µM (inactive); in the assay with A549 it was 89.5 µM (inactive). Further, the GI50 is > 100 µM (inactive) in the assay with HCC 2998; > 100 µM (inactive) with CAKI-1; > 100 µM (inactive) in the assay with SK-OV-3; > 100 µM (inactive) in the assay on COLO 205; > 100 µM (inactive) in the assay on UACC-62; greater than 100 µM in the assay on HCT-15. The GI50 in the assay with HOP-62, in the assay on KM12, in the assay with HOP-92, in the assay with RPMI-8226 and with SK-MEL-5 was > 100 µM (inactive) in each case.

On to `Cc1ccc(-n2c(=S)[nH]c3ccc(Br)cc3c2=O)cc1`, for which the GI50 in the assay on SR, with NCI-H460, with MOLT-4, with U-251, in the assay on SNB-19 and in the assay on A549 was > 100 µM (inactive) each time. Besides, the GI50 is > 100 µM (inactive) with HCC 2998; > 100 µM (inactive) in the assay on COLO 205; > 100 µM (inactive) in the assay on NCI-H522; greater than 100 µM in the assay on HCT-15; > 100 µM (inactive) in the assay on HOP-62; > 100 µM (inactive) in the assay on KM12. In addition, the GI50 with HOP-92 and in the assay with RPMI-8226 was > 100 µM (inactive) throughout.

For `CC(=O)O[C@]12CCC[C@H]1C1(O)C(O)CCC[C@H]12` (some centres undefined), the GI50 in the assay on SR, in the assay on NCI-H460, in the assay on MOLT-4, in the assay with U-251, with SNB-19 and with A549 was > 100 µM (inactive) throughout. Further, the GI50 in the assay with SK-OV-3 was > 100 µM (inactive); in the assay on COLO 205, > 100 µM (inactive); in the assay on UACC-62 it was > 100 µM (inactive); in the assay on NCI-H522, > 100 µM (inactive); in the assay with HCT-15, greater than 100 µM; in the assay with HOP-62 it was > 100 µM (inactive). For the same compound, the GI50 in the assay on KM12, with RPMI-8226 and in the assay with SK-MEL-5 was > 100 µM (inactive) each time.

Take `N#CC(C(=O)CCCC(=O)Nc1ccc(Cl)cc1Cl)c1ccccc1` (centres undefined): the GI50 with SR, with NCI-H460, with MOLT-4, in the assay on U-251, in the assay on SNB-19 and in the assay with A549 was > 100 µM (inactive) each time. Also, the GI50 was > 100 µM (inactive) in the assay with HCC 2998; > 100 µM (inactive) in the assay with CAKI-1; > 100 µM (inactive) with SK-OV-3; > 100 µM (inactive) with COLO 205; > 100 µM (inactive) in the assay with UACC-62; greater than 100 µM in the assay on HCT-15. The GI50 with HOP-62, in the assay on KM12, in the assay on HOP-92 and in the assay with SK-MEL-5 was > 100 µM (inactive) throughout.

As to `Cc1ccc(S(=O)(=O)c2c(N)c3nc4ccccc4n3c3nc4ccccc4nc23)cc1`, the GI50 was > 100 µM (inactive) in the assay on SR; > 100 µM (inactive) in the assay with NCI-H460; > 100 µM (inactive) with MOLT-4; 6.75 µM (inactive) with U-251; > 100 µM (inactive) with SNB-19; > 100 µM (inactive) in the assay on A549. Moreover, the GI50 in the assay on HCC 2998, in the assay with CAKI-1, with SK-OV-3, with COLO 205, in the assay on UACC-62 and with NCI-H522 was > 100 µM (inactive) throughout. The GI50 is greater than 100 µM in the assay with HCT-15; 7.59 µM (inactive) in the assay on HOP-62; > 100 µM (inactive) in the assay on KM12; > 100 µM (inactive) with RPMI-8226; > 100 µM (inactive) in the assay on SK-MEL-5.

As for `C/C=C(/CCCCNCCCC)[Si](C)(C)C`, the GI50 was 13.4 µM (inactive) with SR; 15.6 µM (inactive) with NCI-H460; 11.4 µM (inactive) in the assay with MOLT-4; 13.5 µM (inactive) in the assay with U-251; 17.7 µM (inactive) in the assay on SNB-19; 15.3 µM (inactive) in the assay on A549. For the same compound, the GI50 in the assay on HCC 2998 is 5.66 µM (inactive); in the assay with SK-OV-3, 18 µM (inactive); in the assay on COLO 205, 11 µM (inactive); in the assay with UACC-62, 17.6 µM (inactive); with NCI-H522, 11.9 µM (inactive); in the assay with HCT-15 it was 14.4 µM. The results for the GI50 with KM12, in the assay on HOP-92 and in the assay on SK-MEL-5 were 14.5 µM (inactive), 6.38 µM (inactive) and 13.3 µM (inactive), respectively.
